Source: article PMC8819907 (Journal of Experimental & Clinical Cancer Research : CR, 2022)
“And” between values parts separate entries of the source, which are not always exact repeats. Equal entries are not always repeated. Where two headings read alike, the source gives them in different places.

Key:
advanced solid tumors = assay: Tumor response (RECIST 1.1) and PFS (Kaplan Meier); type: in vivo, human;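 also: patients were grouped by hepatic function into four groups, and PFS differences among these groups were tested with a log rank test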
[1] = tested on: advanced cancer patients with varying degrees of hepatic dysfunction
[2] = tested on: advanced cancer patients with varying degrees of hepatic dysfunction; details: human, in vivo
MEK2 = tested on: MEK2; set-up: method as in ref 17 (a number printed in a supplementary file, which may have a reference list of its own: not looked up in the article's list); details: read-out: IC50 against MEK2; cited from earlier work
HCT-116 xenograft = tested on: HCT-116 xenograft; set-up: method as in ref 17 (a number printed in a supplementary file, which may have a reference list of its own: not looked up in the article's list); details: cited from earlier work
pERK = tested on: pERK; set-up: method as in ref 17 (a number printed in a supplementary file, which may have a reference list of its own: not looked up in the article's list); details: cited from earlier work
[3] = set-up: method as in ref 17 (a number printed in a supplementary file, which may have a reference list of its own: not looked up in the article's list); details: cited from earlier work
[4] = cited from earlier work
[5] = tested on: melanoma, pancreatic cancer, CRC; details: cited from earlier work
[6] = tested on: unresectable stage IIIC or IV cutaneous melanoma with BRAF V600E or V600K mutation; details: cited from earlier work
[7] = tested on: BRAF V600E or V600K mutation-positive melanoma; details: 40 patients with prior BRAF inhibitor; 2 mg PO QD; cited from earlier work
[8] = tested on: acute myeloid leukemia or myelodysplastic syndrome; details: cited from earlier work
KRAS-mutant NSCLC = tested on: KRAS-mutant NSCLC; set-up: method as in ref 24 (a number printed in a supplementary file, which may have a reference list of its own: not looked up in the article's list); details: cited from earlier work
[9] = cited from earlier work; remark: listed apart in the source
[10] = cited from earlier work; remark: listed apart in the source
[11] = 25° C; cited from earlier work
[12] = tested on: MRP2, BSEP, P-gp, BCRP, OATP1B1, OATP1B3, OAT1, OAT3, OCT2, MATE1; details: cited from earlier work
rabbits = details: rabbit, in vivo; cited from earlier work
[13] = 13 patients with KRAS or NRAS mutations

SMILES: CC(=O)Nc1cccc(-n2c(=O)n(C3CC3)c(=O)c3c(Nc4ccc(I)cc4F)n(C)c(=O)c(C)c32)c1 [Trametinib, equimolecular combination of acetamide, N-[3-[3-cyclopropyl-5-[(2-fluoro-4-iodophenyl)amino]-3,4,6,7-tetrahydro6,8-dimethyl-2,4,7-trioxopyrido[4,3-d]pyrimidin-1(2H)-yl]phenyl] with 1,1’-sulfinylbis[methane]]
- Best Response: Partial Response (advanced solid tumors; Mild DL1 2 mg): 0 (0) n (%)
- Best Response: Progressive Disease (advanced solid tumors; Mild DL1 2 mg): 4 (66.7) n (%)
- Best Response: Stable Disease (advanced solid tumors; Mild DL1 2 mg): 2 (33.3) n (%)
- Best Response: Stable Disease (advanced solid tumors; Mild DL1 2 mg, listed as trametinib): 2 (33.3%) n (%)
- median PFS (advanced solid tumors; Mild group): 1.74 months
- Best Response: Partial Response (advanced solid tumors; Mod DL1 1.5 mg): 0 (0) n (%)
- Best Response: Progressive Disease (advanced solid tumors; Mod DL1 1.5 mg): 1 (25.0) n (%)
- Best Response: Stable Disease (advanced solid tumors; Mod DL1 1.5 mg): 3 (75.0) n (%)
- Best Response: Stable Disease (advanced solid tumors; Mod DL1 1.5 mg, listed as trametinib): 3 (75%) n (%)
- Best Response: Partial Response (advanced solid tumors; Mod DL+1 2 mg): 0 (0) n (%)
- Best Response: Progressive Disease (advanced solid tumors; Mod DL+1 2 mg): 1 (33.3) n (%)
- Best Response: Stable Disease (advanced solid tumors; Mod DL+1 2 mg): 2 (66.7) n (%)
- Best Response: Stable Disease (advanced solid tumors; Mod DL+1 2 mg, listed as trametinib): 2 (66%) n (%)
- median PFS (advanced solid tumors; Mod group): 3.45 months
- Best Response: Partial Response (advanced solid tumors; Norm 2 mg): 2 (15.4) n (%)
- Best Response: Progressive Disease (advanced solid tumors; Norm 2 mg): 4 (30.8) n (%)
- Best Response: Stable Disease (advanced solid tumors; Norm 2 mg): 7 (53.8) n (%)
- Best Response: Stable Disease (advanced solid tumors; Norm 2 mg, listed as trametinib): 7 (53.8%) n (%)
- median PFS (advanced solid tumors; Norm group): 3.62 months
- Best Response: Partial Response (advanced solid tumors; Sev DL1 1 mg): 0 (0) n (%)
- Best Response: Progressive Disease (advanced solid tumors; Sev DL1 1 mg): 1 (25.0) n (%)
- Best Response: Stable Disease (advanced solid tumors; Sev DL1 1 mg): 3 (75.0) n (%)
- Best Response: Stable Disease (advanced solid tumors; Sev DL1 1 mg, listed as trametinib): 3 (75%) n (%)
- Best Response: Partial Response (advanced solid tumors; Sev DL+1 1.5 mg): 0 (0) n (%)
- Best Response: Progressive Disease (advanced solid tumors; Sev DL+1 1.5 mg): 1 (100%) n (%)
- Best Response: Stable Disease (advanced solid tumors; Sev DL+1 1.5 mg): 0 (0) n (%)
- Best Response: Stable Disease (advanced solid tumors; Sev DL+1 1.5 mg, listed as trametinib): 0 (0%) n (%)
- median PFS (advanced solid tumors; Sev group): 2.11 months
- Best Response: Partial Response (advanced solid tumors; Total): 2
- Best Response: Progressive Disease (advanced solid tumors; Total): 12
- Best Response: Stable Disease (advanced solid tumors; Total): 17
- Death related to TRAEs ([1]; Mild 2 mg): 0 (0%)
- Death related to TRAEs ([1]; Mod DL1 1.5 mg): 0 (0%)
- Death related to TRAEs ([1]; Mod DL+1 2 mg): 0 (0%)
- Death related to TRAEs ([1]; Norm 2 mg): 0 (0%)
- Death related to TRAEs ([1]; Sev DL1 1 mg): 0 (0%)
- Death related to TRAEs ([1]; Sev DL+1 1.5 mg): 0 (0%)
- Death related to TRAEs ([1]; Total Patients): 0 (0%)
- Death related to TRAEs ([1]; Total Patients, listed as trametinib): No treatment related deaths
- Alanine aminotransferase increased ([1]; human, in vivo): 9 (20%)
- Anemia ([1]; human, in vivo): 10 (23%)
- Blood alkaline phosphatase increased ([1]; human, in vivo): 9 (20%)
- Grade 3 TRAEs ([1]; human, in vivo): 2 events
- Hypertension ([1]; human, in vivo): 8 (18%)
- Hypomagnesemia ([1]; human, in vivo): 8 (18%)
- Hyponatremia ([1]; human, in vivo): 9 (20%)
- Maculopapular rash ([1]; human, in vivo): 11 (23%)
- Mucositis ([1]; human, in vivo): 6 (14%)
- Thrombocytopenia ([1]; human, in vivo): 10 (23%)
- Treatment discontinuation due to TRAEs ([1]; human, in vivo): 3 (7%)
- Treatment discontinuation due to non-TRAEs ([1]; human, in vivo): 10 (23%)
- Vomiting ([1]; human, in vivo): 9 (20%)
- grade 3 gamma-glutamyl transferase increased ([1]; human, in vivo): 1 patient
- grade 3 pneumonitis ([1]; human, in vivo): 1 patient
- RP2D [2]: 2 mg QD
- TGI (HCT-116 xenograft): 83%
- Cmax ([3]; Day 7, 3 mg/kg, read-out: average Cmax in blood): 1410 nM
- estimated half-life (t1/2) ([3]; mice): 33 h
- Cmax ([4]; 2 mg QD on Day 15): 23 ng/mL
- mean AUC0-24 ([4]; 2 mg QD on Day 15): 376 ng·h/mL
- Between-subject variability in exposure, AUC0-24 ([4]; across all dosing regimens): 20-41%
- Between-subject variability in exposure, Cmax ([4]; across all dosing regimens): 27-50%
- effective t1/2 ([4]; in vivo): approximately 4.5 days
- steady state reached by ([4]; in vivo): ~15 days
- partial response (PR) ([5]; 9 patients with BRAF wt melanoma): 2 patients
- overall objective response rate (ORR) ([5]; 14 patients with BRAF-mutant melanoma, 2 mg QD): 43%
- complete responses (CRs) ([5]; 14 patients with BRAF-mutant melanoma): 2
- PRs ([5]; 26 evaluable pancreatic cancer patients): 2
- objective responses ([5]; 28 patients with colorectal cancer): no objective responses
- CR, n (%) [6]: 4 (2%) n (%)
- Objective Response Rate (95% CI) [6]: 22%
- PR, n (%) [6]: 43 (20%) n (%)
- 6-month OS rate ([6]; in vivo): 81%
- PFS Median, months (95% CI) ([6]; investigator-assessed): 4.8 (4.3, 4.9) months
- PFS HR (95% CI) ([6]; trametinib vs chemotherapy, P<0.0001): 0.47 (0.34, 0.65)
- confirmed PR or CR [7]: None of the patients
- best response CRs [8, 13]: 3
- best response PD [8, 13]: 1
- best response SD [8, 13]: 7
- PRs ([8]; 26 patients with wild-type RAS or unknown mutation): 2
- patients withdrew due to an AE ([8]; AML or MDS, 1-2 mg QD): 23%
- median PFS (KRAS-mutant NSCLC): 11.7 weeks
- overall response rate (ORR) (KRAS-mutant NSCLC): 12%
- terminal half-life ([9]; after single dose administration): 127 h
- volume of distribution (Vd) ([9]; following an IV microdose): 1060 L
- plasma IV clearance ([9]; human, in vivo, iv): 3.21 L/h
- plasma IV clearance as share of liver blood flow ([9]; human, in vivo, iv): approximately 1%
- half-life ([9]; patients with normal liver function): approximately 4 days
- absolute oral bioavailability ([9]; single 2 mg tablet relative to co-administered IV microdose): 72%
- decrease in AUC(0-∞) with a high-fat, high-calorie meal ([9]; single dose, vs fasted): 10%
- decrease in Cmax with a high-fat, high-calorie meal ([9]; single dose, vs fasted): 70%
- fecal excretion, of the radioactive dose ([10]; 2 subjects): 39.2% and 35.0%
- fecal excretion, of excreted radioactivity recovered ([10]; oral dose): > 80%
- urinary excretion, of excreted radioactivity recovered ([10]; oral dose): < 19%
- urinary excretion, of the radioactive dose ([10]; oral dose): < 10%
- Approximate Solubility in water [11]: < 0.1 µg/mL
- inhibitor of P-gp, BCRP, OATP1B1, OATP1B3, OAT1, OAT3, OCT2 and MATE1 ([12]; at systemic concentrations that are not clinically relevant): in vitro inhibitor
- inhibitor of MRP2 or BSEP [12]: not an inhibitor
- Embryofetal toxicity (rabbits): embryotoxic and abortifacient
